The results in this text go back to ChEMBL document CHEMBL5653631, “A Potent and Selective ULK1 Inhibitor Suppresses Autophagy and Sensitizes Cancer Cells to Nutrient Stress” (iScience, 2018).

Assay [1] addresses BDNF/NT-3 growth factors receptor (Homo sapiens) (UniProt Q16620). Nature of the assay: Inhibition of human recombinant TRKB at 40 nM related to control ULK1.
For assay [2], the target named is T1, Myosin-IIIb (Homo sapiens) (UniProt Q8WXR4).
T1 sequence (whole entry): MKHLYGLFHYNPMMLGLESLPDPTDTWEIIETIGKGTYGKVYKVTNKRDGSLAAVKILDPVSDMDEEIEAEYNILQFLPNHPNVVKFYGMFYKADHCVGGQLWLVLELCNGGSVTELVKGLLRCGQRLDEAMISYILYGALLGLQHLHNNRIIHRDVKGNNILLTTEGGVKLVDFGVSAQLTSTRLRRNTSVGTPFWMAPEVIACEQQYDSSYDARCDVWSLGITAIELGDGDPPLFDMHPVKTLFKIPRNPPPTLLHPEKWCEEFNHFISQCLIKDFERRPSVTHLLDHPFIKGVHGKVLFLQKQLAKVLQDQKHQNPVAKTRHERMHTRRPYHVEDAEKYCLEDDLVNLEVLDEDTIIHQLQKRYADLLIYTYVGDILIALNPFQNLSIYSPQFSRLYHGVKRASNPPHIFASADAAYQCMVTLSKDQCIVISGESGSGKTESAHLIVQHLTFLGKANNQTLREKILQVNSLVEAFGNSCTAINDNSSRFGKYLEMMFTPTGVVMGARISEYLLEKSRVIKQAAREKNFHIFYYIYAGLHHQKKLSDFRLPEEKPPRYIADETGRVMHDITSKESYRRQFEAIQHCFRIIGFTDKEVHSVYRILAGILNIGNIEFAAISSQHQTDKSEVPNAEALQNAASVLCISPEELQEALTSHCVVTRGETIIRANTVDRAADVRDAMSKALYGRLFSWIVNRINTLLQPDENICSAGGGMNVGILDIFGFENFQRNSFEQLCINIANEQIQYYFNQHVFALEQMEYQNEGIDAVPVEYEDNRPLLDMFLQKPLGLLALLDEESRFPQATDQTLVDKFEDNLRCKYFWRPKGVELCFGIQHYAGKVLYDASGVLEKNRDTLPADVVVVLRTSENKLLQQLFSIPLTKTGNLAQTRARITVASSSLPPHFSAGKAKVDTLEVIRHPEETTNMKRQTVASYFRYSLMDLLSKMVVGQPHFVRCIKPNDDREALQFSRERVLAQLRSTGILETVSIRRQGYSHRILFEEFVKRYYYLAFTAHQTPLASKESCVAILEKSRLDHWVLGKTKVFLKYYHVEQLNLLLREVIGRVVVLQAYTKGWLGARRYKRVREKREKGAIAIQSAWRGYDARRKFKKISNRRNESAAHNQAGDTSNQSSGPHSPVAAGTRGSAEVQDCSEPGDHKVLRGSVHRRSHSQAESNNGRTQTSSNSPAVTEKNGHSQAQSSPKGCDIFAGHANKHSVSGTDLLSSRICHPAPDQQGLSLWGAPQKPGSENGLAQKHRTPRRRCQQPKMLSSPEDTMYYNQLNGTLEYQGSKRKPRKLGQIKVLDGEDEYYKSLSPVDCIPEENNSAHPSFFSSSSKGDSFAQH
Nature of the assay: Inhibition of human recombinant MYO3B at 40 nM related to control ULK1.

The target of assay [3] is Myosin light chain kinase, smooth muscle (Homo sapiens) (UniProt Q15746). Nature of the assay: Inhibition of human recombinant smMLCK at 40 nM related to control ULK1.
Assay [4] deals with T2, Bone morphogenetic protein receptor type-2 (Homo sapiens) (UniProt Q13873).
T2 sequence (whole entry): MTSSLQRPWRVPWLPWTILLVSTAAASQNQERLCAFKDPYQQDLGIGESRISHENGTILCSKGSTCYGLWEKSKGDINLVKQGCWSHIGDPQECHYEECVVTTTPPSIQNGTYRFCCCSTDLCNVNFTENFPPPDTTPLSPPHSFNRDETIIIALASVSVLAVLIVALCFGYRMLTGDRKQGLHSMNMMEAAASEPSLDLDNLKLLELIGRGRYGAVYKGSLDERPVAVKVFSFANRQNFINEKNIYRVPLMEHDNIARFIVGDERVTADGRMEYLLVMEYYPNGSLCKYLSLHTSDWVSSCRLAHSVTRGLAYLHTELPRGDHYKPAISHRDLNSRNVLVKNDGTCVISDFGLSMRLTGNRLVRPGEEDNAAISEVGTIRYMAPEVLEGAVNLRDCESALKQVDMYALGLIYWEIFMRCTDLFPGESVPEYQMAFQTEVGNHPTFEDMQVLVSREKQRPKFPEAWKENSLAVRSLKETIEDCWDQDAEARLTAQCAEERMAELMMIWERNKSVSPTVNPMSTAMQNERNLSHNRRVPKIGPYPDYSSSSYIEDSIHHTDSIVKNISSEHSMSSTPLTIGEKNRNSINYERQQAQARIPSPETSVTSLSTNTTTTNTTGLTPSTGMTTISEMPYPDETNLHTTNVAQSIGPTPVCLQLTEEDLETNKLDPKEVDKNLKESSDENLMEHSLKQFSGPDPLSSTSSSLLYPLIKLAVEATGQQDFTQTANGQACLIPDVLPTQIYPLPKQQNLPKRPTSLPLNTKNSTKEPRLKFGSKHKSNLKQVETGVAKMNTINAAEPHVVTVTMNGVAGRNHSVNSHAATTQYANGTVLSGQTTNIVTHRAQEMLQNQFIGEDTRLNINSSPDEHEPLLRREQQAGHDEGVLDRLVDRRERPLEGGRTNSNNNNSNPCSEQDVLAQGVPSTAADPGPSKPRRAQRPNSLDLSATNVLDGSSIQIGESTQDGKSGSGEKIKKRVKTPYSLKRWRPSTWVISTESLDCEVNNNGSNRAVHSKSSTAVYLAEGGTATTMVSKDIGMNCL
Put plainly: Inhibition of human recombinant BMPR2 at 500 nM related to control ULK1.

The target of assay [5] is Ribosomal protein S6 kinase alpha-4 (Homo sapiens) (UniProt O75676). Put plainly: Inhibition of human recombinant MSK2 at 500 nM in presence of ATP by radiometric assay relative to control.
Assay [6] concerns the target Tyrosine-protein kinase Fgr (Homo sapiens) (UniProt P09769). Put plainly: Inhibition of human recombinant FGR at 15 nM in presence of ATP by radiometric assay relative to control.
The target in assay [7] is Serine/threonine-protein kinase 35 (Homo sapiens) (UniProt Q8TDR2). Put plainly: Inhibition of human recombinant CLIK1 at 15 nM in presence of ATP by radiometric assay relative to control.
Serine/threonine-protein kinase 35 (Homo sapiens), sequence (Q8TDR2 whole entry): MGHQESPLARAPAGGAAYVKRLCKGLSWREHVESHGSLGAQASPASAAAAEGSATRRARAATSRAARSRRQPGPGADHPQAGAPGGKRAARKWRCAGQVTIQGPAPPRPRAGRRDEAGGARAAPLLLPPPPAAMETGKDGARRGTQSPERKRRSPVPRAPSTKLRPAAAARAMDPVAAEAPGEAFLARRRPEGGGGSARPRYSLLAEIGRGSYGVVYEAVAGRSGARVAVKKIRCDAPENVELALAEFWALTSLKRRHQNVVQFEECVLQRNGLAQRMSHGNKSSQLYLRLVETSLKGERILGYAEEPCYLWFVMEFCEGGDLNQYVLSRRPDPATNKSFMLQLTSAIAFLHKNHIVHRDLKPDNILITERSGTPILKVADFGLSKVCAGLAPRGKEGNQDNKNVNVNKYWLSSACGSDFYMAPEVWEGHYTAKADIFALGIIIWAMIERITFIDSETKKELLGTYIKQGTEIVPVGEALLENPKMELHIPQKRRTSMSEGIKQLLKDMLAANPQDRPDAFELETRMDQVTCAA

BDNF/NT-3 growth factors receptor (Homo sapiens), sequence (Q16620 32-822 limits assumed): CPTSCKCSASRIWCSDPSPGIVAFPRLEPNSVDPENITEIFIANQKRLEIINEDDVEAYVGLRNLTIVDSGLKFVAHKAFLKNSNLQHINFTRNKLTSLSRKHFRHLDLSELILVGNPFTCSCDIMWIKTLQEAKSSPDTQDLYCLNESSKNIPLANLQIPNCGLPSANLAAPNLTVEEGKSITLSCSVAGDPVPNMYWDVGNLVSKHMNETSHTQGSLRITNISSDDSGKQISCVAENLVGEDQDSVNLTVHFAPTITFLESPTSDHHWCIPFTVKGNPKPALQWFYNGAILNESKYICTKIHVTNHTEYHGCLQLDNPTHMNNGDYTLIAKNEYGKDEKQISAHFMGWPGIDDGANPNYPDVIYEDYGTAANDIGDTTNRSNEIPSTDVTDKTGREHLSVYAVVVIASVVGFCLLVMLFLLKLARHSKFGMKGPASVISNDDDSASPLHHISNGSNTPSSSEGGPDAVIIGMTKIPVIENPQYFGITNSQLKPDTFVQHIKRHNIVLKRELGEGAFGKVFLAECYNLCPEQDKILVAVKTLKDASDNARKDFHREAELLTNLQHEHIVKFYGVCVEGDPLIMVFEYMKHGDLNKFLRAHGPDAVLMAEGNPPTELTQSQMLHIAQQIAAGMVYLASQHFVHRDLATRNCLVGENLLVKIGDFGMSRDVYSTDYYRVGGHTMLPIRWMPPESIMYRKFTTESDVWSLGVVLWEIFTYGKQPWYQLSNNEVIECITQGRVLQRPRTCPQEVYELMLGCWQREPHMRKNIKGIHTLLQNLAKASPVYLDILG
Ribosomal protein S6 kinase alpha-4 (Homo sapiens), sequence (O75676 whole entry, looked up): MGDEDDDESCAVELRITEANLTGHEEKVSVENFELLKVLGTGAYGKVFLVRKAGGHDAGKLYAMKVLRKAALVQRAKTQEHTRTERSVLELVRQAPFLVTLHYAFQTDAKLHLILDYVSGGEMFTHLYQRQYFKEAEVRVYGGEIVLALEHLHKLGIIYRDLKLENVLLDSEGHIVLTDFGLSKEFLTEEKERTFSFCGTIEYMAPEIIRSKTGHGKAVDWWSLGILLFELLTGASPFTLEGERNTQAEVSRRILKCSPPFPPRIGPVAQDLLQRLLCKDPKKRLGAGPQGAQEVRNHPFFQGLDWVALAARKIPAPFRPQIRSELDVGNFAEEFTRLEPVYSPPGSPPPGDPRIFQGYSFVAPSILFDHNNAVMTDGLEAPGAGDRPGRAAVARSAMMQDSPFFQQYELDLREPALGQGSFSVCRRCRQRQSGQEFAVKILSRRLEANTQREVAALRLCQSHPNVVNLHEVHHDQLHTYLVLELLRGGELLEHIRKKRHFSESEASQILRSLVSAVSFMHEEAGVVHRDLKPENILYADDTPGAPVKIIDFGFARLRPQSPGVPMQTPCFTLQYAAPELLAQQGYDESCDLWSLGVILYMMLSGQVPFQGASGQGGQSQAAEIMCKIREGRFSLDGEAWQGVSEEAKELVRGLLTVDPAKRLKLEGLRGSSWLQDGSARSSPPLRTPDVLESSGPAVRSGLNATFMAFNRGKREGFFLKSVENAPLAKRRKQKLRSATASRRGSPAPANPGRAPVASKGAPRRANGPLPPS
Myosin light chain kinase, smooth muscle (Homo sapiens), sequence (Q15746 whole entry): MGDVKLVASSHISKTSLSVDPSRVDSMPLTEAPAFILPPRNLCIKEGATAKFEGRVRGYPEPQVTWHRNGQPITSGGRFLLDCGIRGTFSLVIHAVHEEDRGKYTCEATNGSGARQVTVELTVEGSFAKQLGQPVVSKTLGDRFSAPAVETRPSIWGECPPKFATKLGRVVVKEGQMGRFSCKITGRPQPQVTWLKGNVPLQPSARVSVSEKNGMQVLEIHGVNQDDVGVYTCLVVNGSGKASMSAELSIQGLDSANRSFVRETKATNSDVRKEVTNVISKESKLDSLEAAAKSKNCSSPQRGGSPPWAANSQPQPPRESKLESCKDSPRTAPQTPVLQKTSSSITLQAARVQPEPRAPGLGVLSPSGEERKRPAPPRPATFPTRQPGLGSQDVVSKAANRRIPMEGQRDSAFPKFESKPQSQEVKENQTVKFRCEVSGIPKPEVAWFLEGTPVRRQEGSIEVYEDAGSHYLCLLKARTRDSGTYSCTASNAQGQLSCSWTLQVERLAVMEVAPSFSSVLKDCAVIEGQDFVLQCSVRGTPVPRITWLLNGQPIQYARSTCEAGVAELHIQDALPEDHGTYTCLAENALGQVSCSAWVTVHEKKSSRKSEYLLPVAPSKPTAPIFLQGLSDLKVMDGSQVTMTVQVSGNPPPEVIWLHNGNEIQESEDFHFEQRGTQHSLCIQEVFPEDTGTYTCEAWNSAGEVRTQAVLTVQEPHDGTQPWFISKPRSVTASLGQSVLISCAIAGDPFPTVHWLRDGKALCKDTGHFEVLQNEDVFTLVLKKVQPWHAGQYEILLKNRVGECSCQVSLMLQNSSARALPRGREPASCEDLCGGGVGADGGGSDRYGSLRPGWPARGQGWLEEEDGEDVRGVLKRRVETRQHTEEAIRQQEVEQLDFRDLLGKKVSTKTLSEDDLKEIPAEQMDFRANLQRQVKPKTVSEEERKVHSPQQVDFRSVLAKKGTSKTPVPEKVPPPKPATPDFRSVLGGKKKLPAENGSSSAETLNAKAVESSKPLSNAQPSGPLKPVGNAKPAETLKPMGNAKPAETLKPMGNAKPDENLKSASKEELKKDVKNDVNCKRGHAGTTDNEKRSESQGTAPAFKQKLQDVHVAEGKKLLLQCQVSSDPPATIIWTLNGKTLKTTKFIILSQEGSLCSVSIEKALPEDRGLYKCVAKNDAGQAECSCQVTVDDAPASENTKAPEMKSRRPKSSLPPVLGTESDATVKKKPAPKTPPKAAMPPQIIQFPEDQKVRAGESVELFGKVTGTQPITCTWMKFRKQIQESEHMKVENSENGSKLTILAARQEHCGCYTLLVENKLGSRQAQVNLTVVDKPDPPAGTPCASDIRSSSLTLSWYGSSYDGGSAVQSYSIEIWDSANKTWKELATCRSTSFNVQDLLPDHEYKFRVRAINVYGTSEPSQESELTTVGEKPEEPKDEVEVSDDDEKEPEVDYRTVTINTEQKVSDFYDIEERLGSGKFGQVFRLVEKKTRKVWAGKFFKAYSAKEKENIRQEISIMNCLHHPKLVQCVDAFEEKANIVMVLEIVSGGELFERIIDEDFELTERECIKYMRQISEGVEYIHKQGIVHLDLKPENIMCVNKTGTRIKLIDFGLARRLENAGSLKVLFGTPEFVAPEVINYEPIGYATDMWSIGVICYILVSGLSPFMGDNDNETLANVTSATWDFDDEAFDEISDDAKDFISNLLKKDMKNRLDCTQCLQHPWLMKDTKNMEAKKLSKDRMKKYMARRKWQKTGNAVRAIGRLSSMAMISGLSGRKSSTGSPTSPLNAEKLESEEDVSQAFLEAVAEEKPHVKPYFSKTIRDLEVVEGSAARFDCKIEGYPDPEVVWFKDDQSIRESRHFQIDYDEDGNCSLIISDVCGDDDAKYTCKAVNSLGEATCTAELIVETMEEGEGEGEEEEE
Tyrosine-protein kinase Fgr (Homo sapiens), sequence (P09769 2-529 limits assumed): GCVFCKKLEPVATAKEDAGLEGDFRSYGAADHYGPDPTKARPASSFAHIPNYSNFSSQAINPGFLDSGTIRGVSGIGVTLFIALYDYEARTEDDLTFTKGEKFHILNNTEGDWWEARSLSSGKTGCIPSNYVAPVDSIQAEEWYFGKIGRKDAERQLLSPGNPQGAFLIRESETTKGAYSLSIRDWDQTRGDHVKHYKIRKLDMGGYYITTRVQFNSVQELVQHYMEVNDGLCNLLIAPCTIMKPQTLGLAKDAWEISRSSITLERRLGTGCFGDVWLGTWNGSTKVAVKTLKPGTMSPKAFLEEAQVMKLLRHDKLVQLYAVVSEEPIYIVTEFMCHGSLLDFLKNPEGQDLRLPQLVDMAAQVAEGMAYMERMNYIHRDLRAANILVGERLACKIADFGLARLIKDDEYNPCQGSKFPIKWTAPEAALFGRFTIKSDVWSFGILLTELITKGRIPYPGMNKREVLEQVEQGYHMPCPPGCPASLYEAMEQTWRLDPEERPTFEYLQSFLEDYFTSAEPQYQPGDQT

In the case of `O=C(N[C@@H](C1CC1)C(F)(F)F)c1cc(-c2cnn3cc(-c4ccc(F)cc4)cnc23)cs1`, the fold change (FC) in assay [1] was found to be 0.26; in assay [2], 0; in assay [3], 0.07.

Broadly, the inhibition is the drop in the measured response relative to a control, in per cent. Consider `CNC(=O)c1ccccc1Oc1nc(Nc2cc(OC)c(OC)c(OC)c2)ncc1Br`, for which the fold change (FC) in assay [4] turned out to be 0. For the same compound, the inhibition in assay [5] came out at 0%.

Regarding `CC(C)[C@H](NC(=O)c1cc(-c2cnn3cc(-c4ccc(OCCN5CCCCC5)cc4)cnc23)cs1)C(F)(F)F`, the inhibition in assay [6] worked out at 43%; in assay [7], 9%.
